The values below come from the supplement of paper PMC10307832.

What all share (test): relative viability (nuclei count vs DMSO), 5 days (fraction); higher = more cells survive
Compound in assay [1]: Cn1cnc2c(F)c(Nc3ccc(Br)cc3Cl)c(C(=O)NOCCO)cc21 [Selumetinib] + CC(=O)c1c(C)c2cnc(Nc3ccc(N4CCNCC4)cn3)nc2n(C2CCCC2)c1=O [Palbociclib] (partner 0.5 µM)
The essentials: (§1)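 Five library-drug doses in √10 steps were combined with a fixed anchor-drug dose, or a single drug was given alone, by pin tool to lung cancer cell lines in 1536-well plates the day after seeding. Nuclei were stained and counted after 5 days. Relative viability is the nuclei count in treated wells over that in vehicle wells, taken as the median of duplicate plates.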

Compound in assay [2]: Cn1cnc2c(F)c(Nc3ccc(Br)cc3Cl)c(C(=O)NOCCO)cc21 [Selumetinib] + CCNC(=O)c1noc(-c2cc(C(C)C)c(O)cc2O)c1-c1ccc(CN2CCOCC2)cc1 [Luminespib] (partner 0.01 µM)
The gist of the method:
as §1

Compound in assay [3]: CC1(C)CCC(CN2CCN(c3ccc(C(=O)NS(=O)(=O)c4ccc(NCC5CCOCC5)c([N+](=O)[O-])c4)c(Oc4cnc5[nH]ccc5c4)c3)CC2)=C(c2ccc(Cl)cc2)C1 [Venetoclax] + CS(=O)(=O)CCNCc1ccc(-c2ccc3ncnc(Nc4ccc(OCc5cccc(F)c5)c(Cl)c4)c3c2)o1 [Lapatinib] (partner 2 µM)
The gist of the method: as §1

Compound in assay [4]: Cn1cnc2c(F)c(Nc3ccc(Br)cc3Cl)c(C(=O)NOCCO)cc21 [Selumetinib] + N=C(N)NC(=N)NCCc1ccccc1 [Phenformin] (partner 250 µM)
The gist of the method:
as §1

As for LC-2-ad, the relative viability in assay [1] (first compound 0.02 µM) worked out at 0.504; in assay [1] (first compound 0.06325 µM), 0.547; in assay [1] (first compound 0.2 µM), 0.492; in assay [1] (first compound 0.6325 µM), 0.453; in assay [2] (first compound 0.02 µM), 0.912; in assay [2] (first compound 0.06325 µM) it was 0.882. For the same cell line, the relative viability turned out to be 0.88 in assay [2] (first compound 0.2 µM); 0.83 in assay [2] (first compound 0.6325 µM); 0.986 in assay [3] (first compound 0.01 µM); 0.899 in assay [3] (first compound 0.03162 µM); 0.876 in assay [3] (first compound 0.1 µM); 0.973 in assay [3] (first compound 0.3162 µM). For the same cell line, the relative viability in assay [3] (first compound 1 µM) was determined as 0.938; in assay [4] (first compound 0.02 µM), 0.557; in assay [4] (first compound 0.06325 µM), 0.544; in assay [4] (first compound 0.2 µM), 0.532; in assay [4] (first compound 0.6325 µM), 0.575.

In the case of NCI-H358, the relative viability stood at 0.123 in assay [1] (first compound 0.02 µM); 0.125 in assay [1] (first compound 0.06325 µM); 0.127 in assay [1] (first compound 0.2 µM); 0.125 in assay [1] (first compound 0.6325 µM); 0.284 in assay [2] (first compound 0.02 µM); 0.148 in assay [2] (first compound 0.06325 µM). The relative viability was found to be 0.292 in assay [2] (first compound 0.2 µM); 0.127 in assay [2] (first compound 0.6325 µM); 0.502 in assay [3] (first compound 0.01 µM); 0.452 in assay [3] (first compound 0.03162 µM); 0.412 in assay [3] (first compound 0.1 µM); 0.499 in assay [3] (first compound 0.3162 µM). Further, the relative viability in assay [3] (first compound 1 µM) was determined as 0.468; in assay [4] (first compound 0.02 µM), 0.211; in assay [4] (first compound 0.06325 µM), 0.175; in assay [4] (first compound 0.2 µM), 0.183; in assay [4] (first compound 0.6325 µM) it was 0.158.

On to PC-3 [JPC-3], for which the relative viability was 0.484 in assay [1] (first compound 0.02 µM); 0.566 in assay [1] (first compound 0.06325 µM); 0.515 in assay [1] (first compound 0.2 µM); 0.571 in assay [1] (first compound 0.6325 µM); 0.721 in assay [2] (first compound 0.02 µM); 0.625 in assay [2] (first compound 0.06325 µM). Also, the relative viability in assay [2] (first compound 0.2 µM) came to 0.458; in assay [2] (first compound 0.6325 µM), 0.442; in assay [3] (first compound 0.01 µM), 0.474; in assay [3] (first compound 0.03162 µM) it was 0.474; in assay [3] (first compound 0.1 µM), 0.434; in assay [3] (first compound 0.3162 µM), 0.465. Also, the relative viability in assay [3] (first compound 1 µM) was found to be 0.475; in assay [4] (first compound 0.02 µM) it was 0.446; in assay [4] (first compound 0.06325 µM), 0.489; in assay [4] (first compound 0.2 µM) it was 0.473; in assay [4] (first compound 0.6325 µM), 0.414.

In the case of CAL-12T, the relative viability in assay [1] (first compound 0.02 µM) was 0.385; in assay [1] (first compound 0.06325 µM), 0.26; in assay [1] (first compound 0.2 µM), 0.222; in assay [1] (first compound 0.6325 µM), 0.191; in assay [2] (first compound 0.02 µM), 0.322; in assay [2] (first compound 0.06325 µM) it was 0.365. In addition, the relative viability in assay [2] (first compound 0.2 µM) worked out at 0.284; in assay [2] (first compound 0.6325 µM) it was 0.362; in assay [3] (first compound 0.01 µM), 0.584; in assay [3] (first compound 0.03162 µM), 0.74; in assay [3] (first compound 0.1 µM) it was 0.577; in assay [3] (first compound 0.3162 µM), 0.61. The relative viability amounted to 0.679 in assay [3] (first compound 1 µM); 0.469 in assay [4] (first compound 0.02 µM); 0.392 in assay [4] (first compound 0.06325 µM); 0.393 in assay [4] (first compound 0.2 µM); 0.353 in assay [4] (first compound 0.6325 µM).
